Laboratory results taken from article PMC5566891, “Eukaryotic transporters for hydroxyderivatives of benzoic acid” (Scientific Reports, 2017).

Target: T1, Hbt2 (Hbt2p) (Lodderomyces parapsilosis, UniProt G8BG57)
T1 construct: native untagged full-length transporter in wild-type cells; assigned by knockout of HBT2
Test: […]-substrate uptake, wild-type versus hbt2 knockout cells
Type: cell-based
Settings: 50 µM, 50 mM Tris-HCl pH 7.5, 28 °C, labelled compound

T1 sequence (G8BG57 entry or part of it): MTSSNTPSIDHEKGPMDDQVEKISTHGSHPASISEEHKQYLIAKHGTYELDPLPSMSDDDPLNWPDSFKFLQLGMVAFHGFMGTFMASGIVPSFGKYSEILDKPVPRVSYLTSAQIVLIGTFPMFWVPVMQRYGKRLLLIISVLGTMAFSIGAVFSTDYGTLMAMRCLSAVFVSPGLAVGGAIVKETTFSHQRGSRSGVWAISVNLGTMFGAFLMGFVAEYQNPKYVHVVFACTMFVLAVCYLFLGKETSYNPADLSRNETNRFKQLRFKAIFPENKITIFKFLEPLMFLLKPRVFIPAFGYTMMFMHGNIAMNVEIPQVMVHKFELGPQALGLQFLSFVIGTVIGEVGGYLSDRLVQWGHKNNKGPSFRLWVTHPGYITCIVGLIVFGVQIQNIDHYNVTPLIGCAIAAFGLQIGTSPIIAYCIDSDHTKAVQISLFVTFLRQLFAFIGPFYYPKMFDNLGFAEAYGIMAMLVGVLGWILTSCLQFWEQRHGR

| SMILES | 14C-substrate uptake, wild-type versus hbt2 knockout cells (cells grown on 4-hydroxybenzoate or hydroquinone) | 14C-substrate uptake, wild-type versus hbt2 knockout cells (cells grown on hydroquinone) |
| --- | --- | --- |
| O=C(O)c1ccc(O)cc1 [4-hydroxybenzoate] | uptake of both substrates is impaired in the ∆hbt2/∆hbt2 mutant | – |
| O=C(O)c1ccc(O)c(O)c1 [protocatechuate] | – | uptake of both substrates is impaired in the ∆hbt2/∆hbt2 mutant |
